Results as given in ChEMBL document CHEMBL4020846 (J Med Chem, 2018).
Activity calls are given as the source filed them. The rule behind the calls is not given here.

Legend:
[1] = biological target: T1, Nucleotide-binding oligomerization domain-containing protein 2 (Homo sapiens, UniProt Q9HC29); assay: Agonist activity at human NOD2 expressed in HEK-Blue cells assessed as induction of NF-kB transcriptional activity at 2 uM after 18 hrs by SEAP reporter gene assay relative to control; type: cell-based
T1 sequence (Q9HC29 whole entry, the tested form may be a part): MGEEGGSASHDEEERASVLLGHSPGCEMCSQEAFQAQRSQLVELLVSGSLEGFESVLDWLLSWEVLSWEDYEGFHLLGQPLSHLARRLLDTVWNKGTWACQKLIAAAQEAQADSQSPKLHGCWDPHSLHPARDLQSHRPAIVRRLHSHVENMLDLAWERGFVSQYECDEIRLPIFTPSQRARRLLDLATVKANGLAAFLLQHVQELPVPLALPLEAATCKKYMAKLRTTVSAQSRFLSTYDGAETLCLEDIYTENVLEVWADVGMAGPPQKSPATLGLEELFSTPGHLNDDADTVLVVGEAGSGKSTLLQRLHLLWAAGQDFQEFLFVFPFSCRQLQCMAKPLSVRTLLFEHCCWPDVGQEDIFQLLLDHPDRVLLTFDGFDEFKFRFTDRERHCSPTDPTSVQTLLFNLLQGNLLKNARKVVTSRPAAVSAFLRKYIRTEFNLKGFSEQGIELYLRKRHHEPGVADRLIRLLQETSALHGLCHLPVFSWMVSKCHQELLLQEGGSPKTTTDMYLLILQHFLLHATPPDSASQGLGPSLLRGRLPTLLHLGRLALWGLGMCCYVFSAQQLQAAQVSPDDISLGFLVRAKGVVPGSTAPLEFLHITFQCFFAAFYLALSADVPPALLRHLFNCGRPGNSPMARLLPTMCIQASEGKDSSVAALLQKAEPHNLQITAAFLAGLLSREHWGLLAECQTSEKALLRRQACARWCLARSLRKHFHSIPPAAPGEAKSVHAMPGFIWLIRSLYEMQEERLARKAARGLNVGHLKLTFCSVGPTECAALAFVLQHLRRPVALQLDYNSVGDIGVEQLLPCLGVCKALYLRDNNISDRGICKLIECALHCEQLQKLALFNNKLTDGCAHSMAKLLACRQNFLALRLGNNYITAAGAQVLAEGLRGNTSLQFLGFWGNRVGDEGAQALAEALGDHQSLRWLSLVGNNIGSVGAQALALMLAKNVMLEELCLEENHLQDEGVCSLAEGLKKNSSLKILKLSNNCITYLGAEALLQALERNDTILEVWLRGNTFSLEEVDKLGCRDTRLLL

[2] = biological target: T1, Nucleotide-binding oligomerization domain-containing protein 2; assay: Agonist activity at human NOD2 expressed in HEK-Blue cells assessed as induction of NF-kB transcriptional activity at 20 uM after 18 hrs by SEAP reporter gene assay; type: cell-based
[3] = biological target: T1, Nucleotide-binding oligomerization domain-containing protein 2; assay: Agonist activity at human NOD2 expressed in HEK-Blue cells assessed as induction of NF-kB transcriptional activity at 2 uM after 18 hrs in presence of NOD2 antagonist GSK-669 by SEAP reporter gene assay; type: cell-based
[4] = biological target: T1, Nucleotide-binding oligomerization domain-containing protein 2; assay: Agonist activity at human NOD2 expressed in HEK-Blue cells assessed as induction of NF-kB transcriptional activity after 18 hrs by SEAP reporter gene assay; type: cell-based
[5] = biological target: T2, Nucleotide-binding oligomerization domain-containing protein 1 (Homo sapiens) (UniProt Q9Y239); assay: Agonist activity at human NOD1 expressed in HEK-Blue cells assessed as induction of NF-kB transcriptional activity at 20 uM after 18 hrs by SEAP reporter gene assay; type: cell-based
T2 sequence (whole entry): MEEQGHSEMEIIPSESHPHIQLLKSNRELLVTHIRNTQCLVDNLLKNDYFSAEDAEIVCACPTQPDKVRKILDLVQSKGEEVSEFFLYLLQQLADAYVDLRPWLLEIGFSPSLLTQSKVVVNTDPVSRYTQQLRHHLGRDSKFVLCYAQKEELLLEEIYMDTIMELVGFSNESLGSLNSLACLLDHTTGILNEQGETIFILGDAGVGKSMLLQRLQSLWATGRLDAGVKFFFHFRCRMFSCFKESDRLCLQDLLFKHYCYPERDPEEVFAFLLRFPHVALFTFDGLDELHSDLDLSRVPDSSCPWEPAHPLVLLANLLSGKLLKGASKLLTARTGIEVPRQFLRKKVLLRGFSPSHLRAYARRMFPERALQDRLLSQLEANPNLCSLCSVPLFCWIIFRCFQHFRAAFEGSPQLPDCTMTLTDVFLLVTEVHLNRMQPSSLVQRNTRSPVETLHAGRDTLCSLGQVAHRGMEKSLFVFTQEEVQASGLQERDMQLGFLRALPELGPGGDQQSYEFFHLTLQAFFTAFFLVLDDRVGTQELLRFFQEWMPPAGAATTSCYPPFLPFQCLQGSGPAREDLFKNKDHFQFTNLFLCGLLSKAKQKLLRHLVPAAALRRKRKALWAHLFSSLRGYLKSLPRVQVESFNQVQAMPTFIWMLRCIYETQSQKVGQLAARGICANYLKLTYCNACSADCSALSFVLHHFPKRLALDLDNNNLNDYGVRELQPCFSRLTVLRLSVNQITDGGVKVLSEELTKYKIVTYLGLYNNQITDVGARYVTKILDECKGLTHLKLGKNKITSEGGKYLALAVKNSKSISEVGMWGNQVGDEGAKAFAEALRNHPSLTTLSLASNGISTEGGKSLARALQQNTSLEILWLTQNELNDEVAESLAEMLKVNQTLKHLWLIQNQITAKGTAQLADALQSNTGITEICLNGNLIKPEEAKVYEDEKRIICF

[6] = Cytotoxicity against HEK-Blue cells over-expressing NOD2 assessed as residual metabolic activity at 20 uM after 18 hrs by CellTiter 96 aqueous one solution cell proliferation assay relative to control; type: ADME, cell-based; conditions: human, read-out: Activity

## CCOC(=O)CC[C@@H](NC(=O)[C@H](Cc1ccccc1)NC(=O)CNC(=O)/C=C/c1ccc(O)c(OC)c1)C(=O)OCC
[1]
  fold change (FC): 5.7
[2]
  Activity: Active
[3]
  Activity: inactive
[4]
  Activity: Dose-dependent effect
  EC50: 121 nM
[5]
  Activity: inactive
[6]
  viability at 18 h, 20 µM: > 80%

## CCOC(=O)CC[C@@H](NC(=O)[C@@H](NC(=O)CNC(=O)[C@@H]1C[C@H]1c1ccccc1)C(C)C)C(=O)OCC
[1]
  fold change (FC): 4.4
[2]
  Activity: Active
[3]
  Activity: inactive
[5]
  Activity: inactive
[6]
  viability at 18 h, 20 µM: > 80%

## CCOC(=O)CC[C@@H](NC(=O)[C@H](Cc1ccccc1)NC(=O)CNC(=O)/C=C/c1ccccc1)C(=O)OCC
[1]
  fold change (FC): 5.3
[2]
  Activity: Active
[3]
  Activity: inactive
[4]
  Activity: Dose-dependent effect
  EC50: 388 nM
[5]
  Activity: inactive
[6]
  viability at 18 h, 20 µM: > 80%

## CCOC(=O)CC[C@@H](NC(=O)[C@@H](NC(=O)CNC(=O)/C=C/c1ccc(F)c(F)c1)C(C)C)C(=O)OCC
[1]
  fold change (FC): 5.6
[2]
  Activity: Active
[3]
  Activity: inactive
[4]
  EC50: 172 nM
[5]
  Activity: inactive
[6]
  viability at 18 h, 20 µM: > 80%

## CCOC(=O)CC[C@@H](NC(=O)[C@H](Cc1ccccc1)NC(=O)CNC(=O)c1cc2ccc(-c3ccccc3)cc2[nH]1)C(=O)OCC
[1]
  fold change (FC): 4.8
[2]
  Activity: Active
[3]
  Activity: inactive
[4]
  Activity: Dose-dependent effect
  EC50: 777 nM
[5]
  Activity: inactive
[6]
  viability at 18 h, 20 µM: > 80%

## CCOC(=O)CC[C@@H](NC(=O)[C@H](Cc1ccccc1)NC(=O)CNC(=O)C1CC1c1ccc(F)c(F)c1)C(=O)OCC (some centres undefined)
[1]
  fold change (FC): 5.2
[2]
  Activity: Active
[3]
  Activity: inactive
[4]
  Activity: Dose-dependent effect
  EC50: 276 nM
[5]
  Activity: inactive
[6]
  viability at 18 h, 20 µM: > 80%

## COC(=O)c1cc(NC(=O)[C@@H](NC(=O)CNC(=O)/C=C/c2ccc(O)c(OC)c2)C(C)C)cc(C(=O)OC)c1
[2]
  Activity: Active
[5]
  Activity: inactive
[6]
  viability at 18 h, 20 µM: > 80%

## CCOC(=O)CC[C@@H](NC(=O)[C@@H](NC(=O)CNC(=O)/C=C/c1ccccc1)C(C)C)C(=O)OCC
[1]
  fold change (FC): 5.7
[2]
  Activity: Active
[3]
  Activity: inactive
[4]
  Activity: Dose-dependent effect
  EC50: 223 nM
[5]
  Activity: inactive
[6]
  viability at 18 h, 20 µM: > 80%

## CCOC(=O)c1cc(O)ccc1NC(=O)[C@@H](NC(=O)CNC(=O)/C=C/c1ccc(O)c(OC)c1)C(C)C
[2]
  Activity: Active
[5]
  Activity: inactive
[6]
  viability at 18 h, 20 µM: > 80%

## CCOC(=O)C1CCN(C(=O)[C@@H](NC(=O)CNC(=O)/C=C/c2ccc(O)c(OC)c2)C(C)C)CC1
[2]
  Activity: Active
[5]
  Activity: inactive
[6]
  viability at 18 h, 20 µM: > 80%

## CCOC(=O)[C@@H]1CCCC[C@@H]1NC(=O)[C@@H](NC(=O)CNC(=O)/C=C/c1ccc(O)c(OC)c1)C(C)C
[2]
  Activity: Active
[5]
  Activity: inactive
[6]
  viability at 18 h, 20 µM: > 80%

## CCOC(=O)[C@H]1CCCC[C@@H]1NC(=O)[C@@H](NC(=O)CNC(=O)/C=C/c1ccc(O)c(OC)c1)C(C)C
[2]
  Activity: Active
[5]
  Activity: inactive
[6]
  viability at 18 h, 20 µM: > 80%

## COC(=O)c1ccc(C(=O)OC)c(NC(=O)[C@@H](NC(=O)CNC(=O)/C=C/c2ccc(O)c(OC)c2)C(C)C)c1
[2]
  Activity: Active
[5]
  Activity: inactive
[6]
  viability at 18 h, 20 µM: > 80%

## CCOC(=O)CC[C@@H](NC(=O)[C@@H](NC(=O)CNC(=O)c1cc2ccc(-c3ccccc3)cc2[nH]1)C(C)C)C(=O)OCC
[1]
  fold change (FC): 3.9
[2]
  Activity: Active
[3]
  Activity: inactive
[5]
  Activity: inactive
[6]
  viability at 18 h, 20 µM: > 80%
